The values that follow come from PubChem BioAssay AID602311 (The Scripps Research Institute Molecular Screening Center, 2012).

Molecules are shown by their SMILES. Calls of active or inactive are those of the source. No rule for the calls is given here.

Common to all, as to assay: serine hydrolase off-target inhibition in mouse brain, late-stage follow-up, selectivity assay for DAGLb inhibitor project, biochemical, gel-based competitive ABPP, mouse brain membrane, set 1 (AID 602311)
In one test the test system is ABHD12. The following applies: gel-based competitive ABPP fluorescence, at 10 µM, stronger effect = higher value.
A further test deals with APEH. The following applies: gel-based competitive ABPP fluorescence, at 10 µM, stronger effect = higher value.
Test [1] addresses Acyl-protein thioesterase 1 (Mus musculus) (UniProt P97823). The following applies: gel-based competitive ABPP fluorescence, LYPLA1, at 10 µM, stronger effect = higher value.
The test system of another test is FAAH. As to conditions: gel-based competitive ABPP fluorescence, at 10 µM, stronger effect = higher value.
In a further test the test system is KIAA1363. The following applies: gel-based competitive ABPP fluorescence, at 10 µM, stronger effect = higher value.
Another test relates to LYPLA2. As to conditions: gel-based competitive ABPP fluorescence, at 10 µM, stronger effect = higher value.
Another test has as its system MAGL. As to conditions: gel-based competitive ABPP fluorescence, at 10 µM, stronger effect = higher value.
In test [2] the target is Monoacylglycerol lipase ABHD6 (Mus musculus) (UniProt Q8R2Y0). As to conditions: gel-based competitive ABPP fluorescence, at 10 µM, stronger effect = higher value.
Sequence of Monoacylglycerol lipase ABHD6 (Mus musculus) (Q8R2Y0 whole entry, looked up): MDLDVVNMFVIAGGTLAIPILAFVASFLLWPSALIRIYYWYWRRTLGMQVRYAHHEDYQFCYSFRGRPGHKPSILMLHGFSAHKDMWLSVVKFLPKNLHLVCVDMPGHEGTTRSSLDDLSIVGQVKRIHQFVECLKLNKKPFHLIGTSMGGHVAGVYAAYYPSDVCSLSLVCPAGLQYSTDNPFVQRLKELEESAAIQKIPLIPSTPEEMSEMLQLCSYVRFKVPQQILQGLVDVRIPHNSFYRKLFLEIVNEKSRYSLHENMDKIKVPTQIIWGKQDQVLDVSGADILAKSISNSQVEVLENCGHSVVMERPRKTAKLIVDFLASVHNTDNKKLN

Sequence of Acyl-protein thioesterase 1 (Mus musculus) (P97823 whole entry, looked up): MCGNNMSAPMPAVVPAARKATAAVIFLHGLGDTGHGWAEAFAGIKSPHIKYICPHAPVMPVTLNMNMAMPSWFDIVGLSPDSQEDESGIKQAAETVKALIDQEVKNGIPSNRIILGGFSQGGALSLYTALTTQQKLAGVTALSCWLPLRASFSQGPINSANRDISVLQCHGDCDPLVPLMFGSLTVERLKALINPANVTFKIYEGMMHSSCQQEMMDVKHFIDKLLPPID

Take `O=C(N1CCCCC1Cc1ccccc1)n1cc(-c2ccccc2-c2ccccc2)nn1` (stereo not drawn): the inhibition in the test with ABHD12 was 0% (inactive); with APEH it was 0% (inactive); in test [1] it was 10% (inactive); in the test on FAAH, 98%; with KIAA1363, 0% (inactive); with LYPLA2 it was 10% (inactive). Also, the values for the inhibition (in the test with MAGL; in test [2]) were 75% and 80%, respectively.

For the molecule `O=C(N1CCCCC1Cc1ccccc1)n1cc(-c2ccc(-c3ccccc3CO)cc2)nn1` (stereo not drawn), the inhibition was 10% (inactive) in the test on ABHD12; 0% (inactive) in the test with APEH; 20% (inactive) in test [1]; 55% in the test on FAAH; 0% (inactive) in the test with KIAA1363; 20% (inactive) with LYPLA2. The inhibition (in the test with MAGL; in test [2]) was 95% each time.

`COc1ccccc1-c1ccc(-c2cn(C(=O)N3CCCCC3Cc3ccccc3)nn2)cc1` (stereo not drawn): the inhibition is 0% (inactive) in the test with ABHD12; 0% (inactive) with APEH; 0% (inactive) in test [1]; 10% (inactive) in the test with FAAH; 0% (inactive) with KIAA1363; 0% (inactive) with LYPLA2. Further, the inhibition in the test on MAGL was 70%; in test [2], 85%.

On to `O=C(c1ccc(-c2cn(C(=O)N3CCCCC3Cc3ccccc3)nn2)cc1)N1CCCCC1` (stereo not drawn), for which the inhibition in the test with ABHD12 is 0% (inactive); in the test with APEH, 0% (inactive); in test [1], 25% (inactive); in the test on FAAH it was 55%; in the test on KIAA1363 it was 0% (inactive); in the test with LYPLA2, 25% (inactive). Moreover, the results for the inhibition (with MAGL; in test [2]) were 0% (inactive) and 98%, respectively.

`O=C(N1CCCCC1Cc1ccccc1)n1cc(-c2ccc(-c3cccc(CO)c3)cc2)nn1` (stereo not drawn): the inhibition is 0% (inactive) in the test on ABHD12; 0% (inactive) in the test on APEH; 0% (inactive) in test [1]; 40% (inactive) in the test on FAAH; 0% (inactive) in the test on KIAA1363; 0% (inactive) with LYPLA2. The inhibition in the test with MAGL is 10% (inactive); in test [2], 90%.

As for `O=C(N1CCCCC1Cc1ccccc1)n1cc(-c2ccc(OC(F)(F)F)cc2)nn1` (stereo not drawn), the inhibition is 0% (inactive) with ABHD12; 0% (inactive) in the test on APEH; 0% (inactive) in test [1]; 65% with FAAH; 40% (inactive) in the test on KIAA1363; 0% (inactive) with LYPLA2. Besides, the figures for the inhibition (with MAGL; in test [2]) were 40% (inactive) and 90%, respectively.

Regarding `O=C(N1CCCCC1Cc1ccccc1)n1cc(-c2ccc(-c3ccc4c(c3)OCO4)cc2)nn1` (stereo not drawn), the inhibition in the test on ABHD12 was 0% (inactive); in the test with APEH, 0% (inactive); in test [1], 0% (inactive); with FAAH, 50%; in the test on KIAA1363, 0% (inactive); with LYPLA2, 0% (inactive). For the same molecule, the figures for the inhibition (with MAGL; in test [2]) were 0% (inactive) and 90%, respectively.

Turning to `O=C(N1CCCCC1c1ccccc1)n1cc(C(O)(c2ccccc2)c2ccccc2)nn1` (stereo not drawn), the inhibition is 0% (inactive) with ABHD12; 95% in the test with APEH; 100% in test [1]; 55% with FAAH; 100% in the test on KIAA1363; 100% in the test with LYPLA2. The inhibition was 0% (inactive) with MAGL and 100% in test [2].

`O=C(N1CCCCC1Cc1ccccc1)n1cc(-c2cc(F)cc(F)c2)nn1` (stereo not drawn): the inhibition is 0% (inactive) in the test on ABHD12; 0% (inactive) with APEH; 50% in test [1]; 98% in the test with FAAH; 85% in the test on KIAA1363; 50% with LYPLA2. In addition, the inhibition was 95% in the test on MAGL and 90% in test [2].

Regarding `O=C(N1CCCCC1Cc1ccccc1)n1cc(-c2ccc(-c3ccccc3C(F)(F)F)cc2)nn1` (stereo not drawn), the inhibition is 0% (inactive) with ABHD12; 0% (inactive) in the test with APEH; 0% (inactive) in test [1]; 40% (inactive) in the test on FAAH; 0% (inactive) with KIAA1363; 0% (inactive) in the test with LYPLA2. For the same molecule, the inhibition in the test with MAGL was 1% (inactive); in test [2] it was 80%.

With `O=C(N1CCCCC1Cc1ccccc1)n1cc(-c2ccc(-c3ccoc3)cc2)nn1` (stereo not drawn), the inhibition with ABHD12 was 0% (inactive); in the test with APEH, 0% (inactive); in test [1], 0% (inactive); in the test with FAAH, 40% (inactive); in the test on KIAA1363, 0% (inactive); with LYPLA2, 0% (inactive). Also, the inhibition with MAGL is 10% (inactive); in test [2] it was 98%.

Take `O=C(N1CCCCC1Cc1ccccc1)n1ncc(C(O)(c2ccccc2)c2ccccc2)n1` (stereo not drawn): the inhibition (in the test on ABHD12; with APEH; in test [1]; in the test on FAAH; with KIAA1363; in the test with LYPLA2) was 0% (inactive) throughout. The figures for the inhibition (in the test with MAGL; in test [2]) were 0% (inactive) and 85%, respectively.

In the case of `O=C(N(CCc1ccccc1)Cc1ccco1)n1cc(-c2ccc(OC(F)(F)F)cc2)nn1`, the inhibition in the test on ABHD12 is 0% (inactive); in the test with APEH, 0% (inactive); in test [1], 0% (inactive); in the test with FAAH it was 95%; with KIAA1363 it was 55%; in the test with LYPLA2 it was 0% (inactive). The inhibition with MAGL was 10% (inactive); in test [2] it was 95%.

For the molecule `O=C(N1CCCCC1Cc1ccccc1)n1cc(-c2ccc(Br)cc2)nn1` (stereo not drawn), the inhibition in the test on ABHD12 was 0% (inactive); in the test with APEH it was 0% (inactive); in test [1], 0% (inactive); with FAAH, 90%; with KIAA1363, 0% (inactive); in the test with LYPLA2 it was 0% (inactive). For the same molecule, the inhibition (in the test on MAGL; in test [2]) was 90% in each case.

With `O=C(N1CCCCC1Cc1ccccc1)n1cc(-c2cccc(-c3ccccc3)c2)nn1` (stereo not drawn), the inhibition in the test on ABHD12 was 0% (inactive); in the test with APEH it was 0% (inactive); in test [1] it was 0% (inactive); with FAAH, 65%; in the test on KIAA1363, 0% (inactive); in the test with LYPLA2, 0% (inactive). Besides, the figures for the inhibition (in the test on MAGL; in test [2]) were 80% and 85%, respectively.

In the case of `O=C(N1CCCCC1Cc1ccccc1)n1cc(-c2ccc(-c3ccccc3OC(F)(F)F)cc2)nn1` (stereo not drawn), the inhibition with ABHD12 is 0% (inactive); in the test with APEH, 0% (inactive); in test [1], 0% (inactive); with FAAH, 45% (inactive); with KIAA1363 it was 25% (inactive); in the test on LYPLA2, 0% (inactive). Moreover, the inhibition was 60% with MAGL and 85% in test [2].
